# Publication PMC6224419, “Structural Studies based on two Lysine Dioxygenases with Distinct Regioselectivity Brings Insights Into Enzyme Specificity within the Clavaminate Synthase-Like Family” (Scientific Reports, 2018)
# Read-outs that look alike come from different tables or passages of the source.
# Columns and labels:
# [1] = target: T1, KDO1 (Catenulispora acidiphila, UniProt C7QJ42); format: binding; details: active site
# T1 construct: gene Caci_0231; hexa-histidine tail (pET-22b(+)), E. coli BL21(DE3); dimer in solution; first ordered residue Glu30
# T1 sequence (C7QJ42 1-358): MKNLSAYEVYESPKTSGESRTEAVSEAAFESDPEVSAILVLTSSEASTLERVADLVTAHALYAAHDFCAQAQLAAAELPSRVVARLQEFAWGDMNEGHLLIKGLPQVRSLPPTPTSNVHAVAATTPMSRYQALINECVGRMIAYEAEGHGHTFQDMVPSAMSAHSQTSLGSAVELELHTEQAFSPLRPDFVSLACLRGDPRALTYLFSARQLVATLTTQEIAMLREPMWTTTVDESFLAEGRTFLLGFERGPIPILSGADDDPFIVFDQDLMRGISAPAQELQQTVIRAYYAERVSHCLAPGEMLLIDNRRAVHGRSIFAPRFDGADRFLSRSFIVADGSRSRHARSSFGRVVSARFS
# [2] = target: T2, KDO5 (Flavobacterium sp. CF136, UniProt J3BZS6); test: X-ray crystal structure (soak); format: binding; details: active site
# T2 construct: gene PMI10_03368; hexa-histidine tail (pET-22b(+)), E. coli BL21(DE3); tetramer in solution; first ordered residue Ala13
# [3] = target: the molecule itself; test: SEC; analytic gel filtration on Superdex 200 Increase 10/300 GL, 100 µL purified protein, 50 mM Tris-HCl pH 8.0, 50 mM NaCl, 10% glycerol, 0.3 ml/min; oligomeric state from elution volume against a calibration curve; data not shown
# [4] = FeSO4/dithionite soak, monomer C
molecule,measurement,setting,value
NCCC[C@H](O)[C@H](N)C(=O)O [(3S)-3-hydroxy-L-lysine],X-ray crystal structure (soak),"[1]; FeSO4/dithionite soak with succinate, monomer B",The (3S)-3-hydroxy-L-lysine makes salt bridges with Glu180
NCCCC[C@H](N)C(=O)O [L-lysine],X-ray crystal structure (soak),[1]; [4],"In KDO1, the L-lysine complex shows a well ordered lysine in monomer C"
same,X-ray crystal structure (soak),[2]; [4],the carboxylate of L-lysine substrate is stabilized by salt bridges with the Arg338
O=C(O)CCC(=O)O [succinate],X-ray crystal structure (soak),"[2]; crystals soaked with L-lysine and α-ketoglutarate, FeSO4/dithionite, monomer D","The succinate resultant from the oxidative decarboxylation of the α-KG, makes H-bond Tyr193"
O=C(O)CCC(=O)C(=O)O [α-KG],X-ray crystal structure (soak),"[1]; FeSO4/dithionite soak, bidentate to iron, monomer B","In the α-KG crystals, the structure shows a well ordered α-KG in monomer B"
same,X-ray crystal structure (soak),"[2]; FeSO4/dithionite soak, bidentate to iron, monomer A","In α-KG bound structure, α-KG is best defined for monomer A"
"KDO5 from Flavobacterium sp. (L-lysine dioxygenase, C-4 regioselective) (enzyme, UniProt J3BZS6 1-372, looked up, KDO5, iron(II)/alpha-ketoacid-dependent lysine dioxygenase of Flavobacterium sp; Cloned into pET-22b(+) with a hexa-histidine tail; Tetramer in solution; four molecules (two dimers) in the asymmetric unit; First ordered residue in the crystals is Ala13; also called K DiOxygenase 5; source: E. coli BL21(DE3), purified (Ni-NTA)) MKSQSIMSVERSAETSLTLEIPTSPLIIKITQQERNILSNVGNLLVKAFGNYENPDYIASLHLHAFQLLPERITRILSQFGSDFSAEQYGAIVFQGLIEVDQDDLGPTPPNWQGADYGKLNKYGFICSLLHGAVPSKPVQYYAQRKGGGLLHAVIPDEKMAATQTGSGSKTDLFVHTEDAFLSNQADFLSFLYLRNEERVPSTLYSIRSHGKMNPVMKKLFEPIYQCPKDANYNDEDVANSGPTASVLYGNRELPFIRFDAAEQIFNENAGQTSEALGNLMDFWDEAKTLINSDYIPNSGDLIFVNNHLCAHGRSAFIAGQRIENGEIIKCERRQMLRMMSKTSLIHIRSVTRTDDPYFIMEEHLGKIFDLD",stoichiometry N,[3],4
"KDO1 from Catenulispora acidiphila (L-lysine dioxygenase, C-3 regioselective) (enzyme, UniProt C7QJ42 1-358, looked up, KDO1, iron(II)/alpha-ketoacid-dependent lysine dioxygenase of Catenulispora acidiphila; Cloned into pET-22b(+) with a hexa-histidine tail; Dimer in solution; four molecules (two dimers) in the asymmetric unit; First ordered residue in the crystals is Glu30; also called K DiOxygenase 1; source: E. coli BL21(DE3), purified (Ni-NTA)) MKNLSAYEVYESPKTSGESRTEAVSEAAFESDPEVSAILVLTSSEASTLERVADLVTAHALYAAHDFCAQAQLAAAELPSRVVARLQEFAWGDMNEGHLLIKGLPQVRSLPPTPTSNVHAVAATTPMSRYQALINECVGRMIAYEAEGHGHTFQDMVPSAMSAHSQTSLGSAVELELHTEQAFSPLRPDFVSLACLRGDPRALTYLFSARQLVATLTTQEIAMLREPMWTTTVDESFLAEGRTFLLGFERGPIPILSGADDDPFIVFDQDLMRGISAPAQELQQTVIRAYYAERVSHCLAPGEMLLIDNRRAVHGRSIFAPRFDGADRFLSRSFIVADGSRSRHARSSFGRVVSARFS",stoichiometry N,[3],2
